Several values for one entry are separate records, joined by “and”; a condition that tells them apart may be missing. Equal values may be shown once.
Test: wn = mass fraction of the nth substance listed
Conditions: 101 kPa, Liquid, Alternating current cell with electrodes, w1 = 0.01

CCCCCCCCCCCC[N+](CC)(CC)CCCCCCCCCCCC.[Br-] [didodecyldiethylammonium bromide] + O
Conditions | electrical conductivity
315.45 K | 0.0223 S/m
315.55 K | 0.0224 S/m
315.65 K | 0.0224 S/m
315.75 K | 0.0226 S/m
315.85 K | 0.0227 S/m
315.95 K | 0.0228 S/m
316.05 K | 0.0228 S/m
316.15 K | 0.023 S/m
316.25 K | 0.023 S/m
316.35 K | 0.0231 S/m
316.45 K | 0.0233 S/m
316.55 K | 0.0234 S/m
316.65 K | 0.0236 S/m
316.85 K | 0.0238 S/m
317.05 K | 0.0239 S/m
317.15 K | 0.0242 S/m
317.25 K | 0.0242 S/m
317.35 K | 0.0244 S/m
317.45 K | 0.0245 S/m
317.55 K | 0.0246 S/m
317.65 K | 0.0247 S/m
317.75 K | 0.0249 S/m
317.85 K | 0.0249 S/m
317.95 K | 0.0252 S/m
318.05 K | 0.0253 S/m
318.15 K | 0.0253 S/m
318.25 K | 0.0255 S/m
318.35 K | 0.0257 S/m
318.45 K | 0.0259 S/m
318.55 K | 0.0259 S/m
318.65 K | 0.026 S/m
318.75 K | 0.0262 S/m
318.85 K | 0.0263 S/m
318.95 K | 0.0264 S/m
319.05 K | 0.0265 S/m
319.15 K | 0.0266 S/m
319.25 K | 0.0268 S/m
319.35 K | 0.027 S/m
319.45 K | 0.0271 S/m
319.55 K | 0.0272 S/m
319.65 K | 0.0273 S/m
319.75 K | 0.0275 S/m
319.85 K | 0.0276 S/m
319.95 K | 0.0277 S/m
320.05 K | 0.0278 S/m
320.15 K | 0.028 S/m
320.25 K | 0.0282 S/m
320.35 K | 0.0283 S/m
320.45 K | 0.0283 S/m
320.55 K | 0.0286 S/m
320.65 K | 0.0288 S/m
320.75 K | 0.0289 S/m
320.85 K | 0.029 S/m
320.95 K | 0.0292 S/m
321.05 K | 0.0293 S/m
321.15 K | 0.0294 S/m
321.25 K | 0.0296 S/m
321.35 K | 0.0298 S/m
321.45 K | 0.03 S/m
321.55 K | 0.0301 S/m
321.65 K | 0.0303 S/m
321.75 K | 0.0304 S/m
321.85 K | 0.0306 S/m
321.95 K | 0.0308 S/m
322.15 K | 0.031 S/m
322.25 K | 0.0312 S/m
322.35 K | 0.0314 S/m
322.45 K | 0.0315 S/m
322.55 K | 0.0316 S/m
322.65 K | 0.0317 S/m
322.75 K | 0.0318 S/m
322.85 K | 0.0319 S/m
323.35 K | 0.0323 S/m
323.55 K | 0.0324 S/m
323.75 K | 0.0326 S/m
324.05 K | 0.033 S/m
324.25 K | 0.0332 S/m
324.55 K | 0.0334 S/m
324.75 K | 0.0338 S/m
325.05 K | 0.0339 S/m
325.35 K | 0.0344 S/m
325.55 K | 0.0348 S/m
325.85 K | 0.0352 S/m
326.35 K | 0.036 S/m
326.75 K | 0.0368 S/m
327.35 K | 0.0372 S/m
327.95 K | 0.0384 S/m
328.55 K | 0.0392 S/m
328.85 K | 0.0402 S/m
329.55 K | 0.0411 S/m
330.25 K | 0.0426 S/m
331.05 K | 0.0442 S/m
331.85 K | 0.0461 S/m
332.25 K | 0.0461 S/m
332.95 K | 0.0482 S/m
333.35 K | 0.049 S/m
333.55 K | 0.0491 S/m
333.75 K | 0.0491 S/m
333.85 K | 0.0493 S/m
333.95 K | 0.0496 S/m
334.05 K | 0.0501 S/m
334.15 K | 0.0501 S/m
334.25 K | 0.0504 S/m
334.35 K | 0.0505 S/m
334.45 K | 0.0507 S/m
334.55 K | 0.0507 S/m
334.65 K | 0.0509 S/m
334.75 K | 0.0512 S/m
334.85 K | 0.0514 S/m
334.95 K | 0.0514 S/m
335.05 K | 0.0514 S/m
335.15 K | 0.0515 S/m
335.25 K | 0.0519 S/m
335.35 K | 0.052 S/m
335.45 K | 0.0521 S/m
335.65 K | 0.0524 S/m
335.75 K | 0.0526 S/m
335.95 K | 0.0528 S/m
336.05 K | 0.0531 S/m
336.15 K | 0.0531 S/m
336.25 K | 0.0532 S/m
336.35 K | 0.0536 S/m
336.45 K | 0.0537 S/m
336.55 K | 0.0539 S/m
336.65 K | 0.0542 S/m
336.75 K | 0.0544 S/m
336.85 K | 0.0545 S/m
336.95 K | 0.0546 S/m
337.05 K | 0.0548 S/m
337.15 K | 0.0549 S/m
337.25 K | 0.0551 S/m
337.35 K | 0.0552 S/m
337.45 K | 0.0553 S/m
337.55 K | 0.0556 S/m
337.65 K | 0.0556 S/m
337.75 K | 0.0558 S/m
337.85 K | 0.0559 S/m
337.95 K | 0.0563 S/m
338.05 K | 0.0564 S/m
338.15 K | 0.0566 S/m
338.25 K | 0.0568 S/m
338.35 K | 0.0569 S/m
338.45 K | 0.0571 S/m
338.55 K | 0.0573 S/m
338.65 K | 0.0575 S/m
338.75 K | 0.0577 S/m
338.85 K | 0.0578 S/m
338.95 K | 0.058 S/m
339.05 K | 0.0583 S/m
339.15 K | 0.0582 S/m
339.25 K | 0.0585 S/m
339.35 K | 0.0587 S/m
339.45 K | 0.0588 S/m
339.55 K | 0.0591 S/m
339.65 K | 0.0592 S/m
339.75 K | 0.0593 S/m
339.85 K | 0.0596 S/m
339.95 K | 0.0598 S/m
340.05 K | 0.06 S/m
340.15 K | 0.0602 S/m
340.25 K | 0.0605 S/m
340.35 K | 0.0606 S/m
340.45 K | 0.0608 S/m
340.55 K | 0.061 S/m
340.65 K | 0.0612 S/m
340.75 K | 0.0614 S/m
340.85 K | 0.0614 S/m
340.95 K | 0.0616 S/m
341.05 K | 0.062 S/m
341.15 K | 0.062 S/m
341.25 K | 0.0622 S/m
341.35 K | 0.0624 S/m
341.45 K | 0.0625 S/m
341.55 K | 0.0627 S/m
341.65 K | 0.0629 S/m
341.75 K | 0.063 S/m
341.85 K | 0.0633 S/m
341.95 K | 0.0633 S/m
342.05 K | 0.0637 S/m
342.15 K | 0.0639 S/m
342.25 K | 0.064 S/m
342.35 K | 0.0642 S/m
342.45 K | 0.0643 S/m
342.55 K | 0.0645 S/m
342.65 K | 0.0649 S/m
342.75 K | 0.0651 S/m
342.85 K | 0.0654 S/m
342.95 K | 0.0656 S/m
343.05 K | 0.0657 S/m
343.15 K | 0.0658 S/m
343.25 K | 0.0662 S/m
343.35 K | 0.0663 S/m
343.45 K | 0.0663 S/m
343.55 K | 0.0664 S/m
343.65 K | 0.0667 S/m
343.75 K | 0.0667 S/m
343.85 K | 0.067 S/m
343.95 K | 0.0674 S/m
344.05 K | 0.0675 S/m
344.15 K | 0.0674 S/m
344.25 K | 0.0677 S/m
344.35 K | 0.0678 S/m
344.45 K | 0.0679 S/m
344.55 K | 0.0679 S/m
344.65 K | 0.068 S/m
344.75 K | 0.0685 S/m
344.85 K | 0.0686 S/m
344.95 K | 0.0689 S/m
345.05 K | 0.0688 S/m
345.15 K | 0.069 S/m
345.25 K | 0.069 S/m and 0.0692 S/m
345.35 K | 0.0692 S/m
345.45 K | 0.0694 S/m
345.55 K | 0.0697 S/m
345.65 K | 0.0699 S/m
345.75 K | 0.0699 S/m
345.85 K | 0.07 S/m
345.95 K | 0.0701 S/m
346.05 K | 0.0702 S/m
346.15 K | 0.0704 S/m
346.25 K | 0.0707 S/m
346.35 K | 0.0709 S/m
346.45 K | 0.0708 S/m
346.55 K | 0.0709 S/m
346.65 K | 0.0712 S/m
346.75 K | 0.0712 S/m
346.85 K | 0.0713 S/m
